According to US11384101B2, “Oral care compositions” (priority 2017, dated 2022):
Where two headings read alike, the source gives them in different places.

Experiments:
[1] = system: oral bacteria; assay: Alamar Blue assay of antibacterial efficacy in the presence of SLS; assay type: cell-based, oral bacteria from human saliva; settings: 1 hour after addition of dye; for presence or absence of live bacteria (indicated by color): Alamar Blue assay in the presence of SLS; for Color of Solution: Alamar Blue, 10 mg active + 20 mg of 30 weight % SLS solution + 5 ml oral bacteria solution, 37° C., blue to red indicates live bacteria
Procedure: Table 1 describes the results of an assay evaluating the antibacterial efficacy of an exemplary CPC-ZnCl2 complex of the present invention, in the presence of an anionic surfactant. […] A negative control was also prepared adding 20 mg (+/− 0.9 mg) of the 30 weight % SLS aqueous solution and 5 ml of the prepared oral bacteria solution to deionized water instead of the antibacterial ingredient. The samples were then placed in a 37° C. oven and shaken at 100 RPM for 30 minutes. 200 μL of Alamar Blue dye was then added to each sample and placed back in the 37° C. oven and shaken at 100 RPM. The samples were then monitored every 30 minutes, with the results 1 hour after addition of the dye recorded in Table 1.

[2] = deionized water, physiological temperature (36-37° C.)
[3] = deionized water, room temperature (23-24° C.)
[4] = deionized water, room temperature (23-24° C.), even after 24 hours of aging

| SMILES | presence or absence of live bacteria (indicated by color) [1] | Color of Solution [1] | solubility of 1.0 weight % aqueous solution [2] | solubility of 10 weight % aqueous solution [2] | solubility of 0.1 weight % aqueous solution [3] | solubility of 0.5 weight % aqueous solution [3] | solubility of 1.0 weight % aqueous solution [4] | solubility of 10.0 weight % aqueous solution [4] | reduction in solubility compared to the CPC and ZnCl2 reactants separately (water) [fold] |
| --- | --- | --- | --- | --- | --- | --- | --- | --- | --- |
| CCCCCCCCCCCCCCCC[n+]1ccccc1 [CPC, Cetylpyridinium chloride] | presence of live bacteria | Pink | – | – | – | – | – | – | – |
| CCCCCCCCCCCCCCCC[n+]1ccccc1.CCCCCCCCCCCCCCCC[n+]1ccccc1.[Cl][Zn-2]([Cl])([Cl])[Cl] [CPC-ZnCl2 complex, [(C21H38N)2][ZnCl4]] | absence of live bacteria | Blue | soluble | not fully soluble | soluble | soluble | undissolved | undissolved | ≥ 25 |
| [Cl-].[Cl-].[Zn+2] [ZnCl2, zinc chloride] | presence of live bacteria | Purple | – | – | – | – | – | – | – |
